Data from PMC4774972, “Activity and Predicted Nephrotoxicity of Synthetic Antibiotics Based on Polymyxin B” (Journal of Medicinal Chemistry, 2016).
In brackets after ≈: the same amount, converted by molar mass. Bridge positions count the residues as written; N and C are the ends. Square brackets hold non-standard residues; d marks the D form. Peptide text beside a SMILES is read from it. * marks the point of attachment. Bip = N[C@@H](Cc1ccc(-c2ccccc2)cc1)C(=O)O; dBip = N[C@H](Cc1ccc(-c2ccccc2)cc1)C(=O)O; Gly(octyl) = CCCCCCCC[C@H](N)C(=O)O; Octanoyl = CCCCCCCC(=O)*; Dab = NCC[C@H](N)C(=O)O

What was measured:
[1] = tested on: K. pneumoniae CI 138-16357-20362, PmxR; conditions: MIC K. pneumoniae CI 138-16357-20362, PmxR (µg/mL)
[2] = tested on: S. aureus ATCC 25923, MSSA; conditions: MIC S. aureus ATCC 25923, MSSA (µg/mL)
[3] = tested on: K. pneumoniae CI Koprana 100650661:1, PmxR; conditions: MIC K. pneumoniae CI Koprana 100650661:1, PmxR (µg/mL)
[4] = tested on: A. baumannii CI Ptyela 100734512:2, PmxR; conditions: MIC A. baumannii CI Ptyela 100734512:2, PmxR (µg/mL)
[5] = tested on: P. aeruginosa PA9704, PmxR; conditions: MIC P. aeruginosa PA9704, PmxR (µg/mL)
[6] = tested on: P. aeruginosa FADDI-PA070, PmxR; conditions: MIC P. aeruginosa FADDI-PA070, PmxR (µg/mL)
[7] = tested on: K. pneumoniae CI 138-16357-20362, PmxR; assay: microbe, parasite or virus in culture; assay type: cell-based, Klebsiella pneumoniae; conditions: carbapenem & polymyxin resistant clinical isolate; MHB, 5 × 10^5 CFU/mL, 18 h at 37 °C
Protocol: (§1) Bacteria were either obtained from American Type Culture Collection (ATCC; Manassas, VA, USA) or independent academic clinical isolate collections, as listed in Table S2. Bacteria were cultured in nutrient broth (NB; Bacto Laboratories, catalog no. 234000) or Muller Hinton broth (MHB; Bacto Laboratories, catalog no. 211443) at 37 °C overnight with shaking (∼180 rpm). A sample of each culture was then diluted 50-fold in fresh MHB and incubated at 37 °C for 1.5–3 h with shaking (∼180 rpm). Compound stock solutions were prepared as 0.64 or 2.56 mg/mL in water. The compounds, at twice the final desired concentration, were serially diluted 2-fold across the wells of 96-well plates (Polystyrene, Corning, catalogue No. 3370). Mid log phase bacterial cultures (after 1.5–3 h incubation) were diluted to a final concentration of 5 × 10^5 colony forming units (CFU)/mL, and 50 μL was added to each well giving a final compound concentration range of 32 μg/mL to 0.015 μg/mL (128–0.06 μg/mL for colistin and polymyxin B against the polymyxin resistant clinical isolates). MICs were determined visually after 18 h of incubation at 37 °C, with the MIC defined as the lowest compound concentration at which no bacterial growth was visible.
(§2) Table S2. Bacterial strains used for Minimum Inhibitory Concentration (MIC) […]
(§3) Organism Strain Strain description Strain Source
(§4) Escherichia coli ATCC 25922 FDA strain Seattle 1946 ATCC
(§5) Klebsiella pneumoniae ATCC 13883 Control strain ATCC
(§6) Klebsiella pneumoniae ATCC 700603 Multi-drug resistant ATCC
(§7) Klebsiella pneumoniae BAA-2146 Metallo-beta-lactamase- ATCC
(§8) Acinetobacter baumannii ATCC 19606 Type strain ATCC
(§9) Pseudomonas aeruginosa ATCC 27853 Type strain ATCC
(§10) Pseudomonas aeruginosa FADDI-PA070 Clinical isolate, Nation and Li labs, polymyxin resistant Monash University
(§11) Clinical isolate, Wang Hengzhuang, Pseudomonas aeruginosa PA9704 polymyxin resistant University Hospital of […]
(§12) Ptyela Clinical isolate, Ilias Karaiskos and Acinetobacter baumannii Carbapenem & Helen Giamarellou
(§13) Clinical isolate, Medicine, Hygeia
(§14) Klebsiella pneumoniae Koprana Carbapenem, & General Hospital, […]
(§15) Clinical isolate, (Instituto Dante […]
(§16) polymyxin resistant Cardiologia, São […]

[8] = tested on: K. pneumoniae CI Koprana 100650661:1, PmxR; assay: microbe, parasite or virus in culture; assay type: cell-based, Klebsiella pneumoniae; conditions: carbapenem & polymyxin resistant clinical isolate; MHB, 5 × 10^5 CFU/mL, 18 h at 37 °C
Protocol: as §1, §2, §3, §4, §5, §6, §7, §8, §9, §10, §11, §12, §13, §14, §15, §16

HepG2 = conditions: CC50 HepG2 (µM)

For `CCCCCCCC(=O)N[C@H](C(=O)N[C@@H](CCN)C(=O)N[C@H]1CCNC(=O)[C@H]([C@@H](C)O)NC(=O)[C@H](CCN)NC(=O)[C@H](CCN)NC(=O)[C@H](CC(C)C)NC(=O)[C@@H](Cc2ccccc2)NC(=O)[C@H](CCN)NC1=O)[C@@H](C)O` [Compound 12] (Octanoyl-T[Dab][Dab][Dab][dF]L[Dab][Dab]T; lactam 3-C), the MIC [1] was over 32 µg/mL, the MIC [2] was over 32 µg/mL and the MIC [3] was over 32 µg/mL. The MIC [4] was over 32 µg/mL, the MIC [5] was over 32 µg/mL and the MIC [6] was over 32 µg/mL. The “MIC K. pneumoniae CI 138-16357-20362, PmxR” value [7] was over 32 µg/mL, the “MIC K. pneumoniae CI Koprana 100650661:1, PmxR” value [8] was over 32 µg/mL and the CC50 (HepG2) was over 300 µM.
With `CCCCCCCC(=O)N[C@@H](CCN)C(=O)N[C@H](C(=O)N[C@@H](CCN)C(=O)N[C@H]1CCNC(=O)[C@H]([C@@H](C)O)NC(=O)[C@H](CCN)NC(=O)[C@H](CCN)NC(=O)[C@H](Cc2ccc(-c3ccccc3)cc2)NC(=O)[C@@H](Cc2ccccc2)NC(=O)[C@H](CCN)NC1=O)[C@@H](C)O` (Octanoyl-[Dab]T[Dab][Dab][Dab][dF][Bip][Dab][Dab]T; lactam 4-C) the MIC [1] was over 32 µg/mL and the CC50 (HepG2) was 117 µM.
In the case of `CCCCCCCC(=O)N[C@@H](CCN)C(=O)N[C@H](C(=O)N[C@@H](CCN)C(=O)N[C@H]1CCNC(=O)[C@H]([C@@H](C)O)NC(=O)[C@H](CCN)NC(=O)[C@H](CCN)NC(=O)[C@H](CC(C)C)NC(=O)[C@@H](Cc2ccc(-c3ccccc3)cc2)NC(=O)[C@H](CCN)NC1=O)[C@@H](C)O` (Octanoyl-[Dab]T[Dab][Dab][Dab][dBip]L[Dab][Dab]T; lactam 4-C), the CC50 (HepG2) is reported as 119 µM.
`CCCCCCCC(=O)N[C@@H](CCN)C(=O)N[C@H](C(=O)N[C@@H](CCN)C(=O)N[C@H]1CCNC(=O)[C@H]([C@@H](C)O)NC(=O)[C@H](CCN)NC(=O)[C@H](Cc2ccc(N)cc2)NC(=O)[C@H](CC(C)C)NC(=O)[C@@H](Cc2ccccc2)NC(=O)[C@H](CCN)NC1=O)[C@@H](C)O` [Compound 25] showed an MIC [1] of over 32 µg/mL, an MIC [2] of over 32 µg/mL and an MIC [3] of over 32 µg/mL. For the same compound, the MIC [4] was over 32 µg/mL, the MIC [5] was over 32 µg/mL and the “MIC K. pneumoniae CI 138-16357-20362, PmxR” value [7] was over 32 µg/mL. The “MIC K. pneumoniae CI Koprana 100650661:1, PmxR” value [8] was over 32 µg/mL.
Work on `CCCCCCCC(=O)N[C@@H](CCN)C(=O)N[C@H](C(=O)N[C@@H](CCN)C(=O)N[C@H]1CCNC(=O)[C@H]([C@@H](C)O)NC(=O)[C@H](CCN)NC(=O)[C@H](CCCNC(=N)N)NC(=O)[C@H](CC(C)C)NC(=O)[C@@H](Cc2ccccc2)NC(=O)[C@H](CCN)NC1=O)[C@@H](C)O` [Compound 26] yielded an MIC [1] of over 32 µg/mL, an MIC [2] of over 32 µg/mL and an MIC [3] of over 32 µg/mL. For the same compound, the MIC [5] was over 32 µg/mL, the “MIC K. pneumoniae CI 138-16357-20362, PmxR” value [7] was over 32 µg/mL and the “MIC K. pneumoniae CI Koprana 100650661:1, PmxR” value [8] was over 32 µg/mL.
For `CCCCCCCC(=O)N[C@@H](CCN)C(=O)N[C@H](C(=O)N[C@@H](CCN)C(=O)N[C@H]1CCNC(=O)[C@H]([C@@H](C)O)NC(=O)[C@H](CCN)NC(=O)[C@H](CCNC(=O)[C@@H](N)CCCNC(=N)N)NC(=O)[C@H](CC(C)C)NC(=O)[C@@H](Cc2ccccc2)NC(=O)[C@H](CCN)NC1=O)[C@@H](C)O` [Compound 22], the MIC [1] was over 32 µg/mL, the MIC [2] was over 32 µg/mL and the MIC [3] was over 32 µg/mL. The MIC [4] was over 32 µg/mL, the MIC [5] was over 32 µg/mL and the MIC [6] was over 32 µg/mL. For the same compound, the “MIC K. pneumoniae CI 138-16357-20362, PmxR” value [7] was over 32 µg/mL and the “MIC K. pneumoniae CI Koprana 100650661:1, PmxR” value [8] was over 32 µg/mL.
In the case of `CCCCCCCC[C@@H]1NC(=O)[C@@H](Cc2ccccc2)NC(=O)[C@H](CCN)NC(=O)[C@@H](NC(=O)[C@H](CCN)NC(=O)[C@@H](NC(=O)[C@H](CCN)NC(=O)CCCCCCC)[C@@H](C)O)CCNC(=O)[C@H]([C@@H](C)O)NC(=O)[C@H](CCN)NC(=O)[C@H](CCN)NC1=O` (Octanoyl-[Dab]T[Dab][Dab][Dab][dF][Gly(octyl)][Dab][Dab]T; lactam 4-C), the MIC [1] is reported as 32 µg/mL (≈ 25.7 µM), the MIC [2] is reported as 8 µg/mL (≈ 6.42 µM) and the MIC [3] is reported as 32 µg/mL (≈ 25.7 µM). For the same compound, the MIC [4] was 8 µg/mL (≈ 6.42 µM), the MIC [5] was 8 µg/mL (≈ 6.42 µM) and the MIC [6] was 16 µg/mL (≈ 12.8 µM). The CC50 (HepG2) was 116 µM.
